Positions of bridges follow the written chain, without caps; N, C: chain ends. Non-standard residues stand in square brackets, D forms with d. Residues, ends and D or L forms follow the SMILES beside them. *: point of attachment. Picolinoyl = O=C(c1ccccn1)*; Aib = CC(C)(N)C(=O)O

This note sets out measurements from US20230210939A1, “CYCLIC PEPTIDE COMPOUNDS AND METHODS OF USE” (priority 2020, published 2023).

Experiment [1] concerns TNF-α content in conditioned media of LPS-treated BV2 microglial cells. Description: In vitro TNF-α inhibitory activity in LPS-treated BV2 microglial cells. Type of experiment: cell-based. The conditions noted are these: compound 45 min before LPS, 24 h incubation, TNF-α in supernatant, read-out: IC50 for reducing LPS-induced TNF-α content by half. The method, then: To measure the efficacy of the biological activity of Compound 1, an in vitro assay was employed to measure TNF-α content in conditioned media of cells treated with lipopolysaccharide (LPS) and different concentrations of Compound 1. 1 mg of Compound 1 peptide compound was added to 3.333 mL of physiological saline to make a 189 μM peptide solution which is sterilized by filtration through a 0.22 μm membrane filter. For treatment of cells, threefold serial dilutions were made, yielding concentrations of 189, 63, 21, 7, 2.3, and 0.76 μM peptide solution.
BV2 cells were recovered and passaged more than 3 times. 1.2×10^6 BV2 microglial cells in good growth state and in the logarithmic growth phase were diluted to […] cells/mL with DMEM medium containing 10% FBS, and 400 μL of cell suspension was inoculated into each well of a 48-well cell culture plate. […]

Experiment [2] relates to TNF-α content in the blood of LPS-treated ICR mice. Description: In vivo TNF-α inhibitory activity in LPS-treated mice. The conditions noted are these: ICR male mice, IV compound 30 min before IV LPS 5 μg/kg, blood collected 1.5 hours after LPS. The method, then:
To measure the efficacy of the biological activity of Compound 1, an in vivo assay was employed to measure TNF-α content in the blood of whole mice treated with lipopolysaccharide (LPS) and different concentrations of Compound 1. 56 ICR male mice, 12-14 g, were acclimated to the animal facility for 7 days and were then randomized into 8 groups with 7 mice/group to receive doses of 0, 0.001, 0.003, 0.01, 0.03, 0.1, 0.3, and 1.0 mg/kg of compound. Each dose group received intravenous (IV) injection of different concentrations of Compound 1 peptide solution at a dosing volume of 10 mL/kg. 30 min later, IV LPS at a dose of 5 μg/kg and at a volume of 10 ml/kg was administered. 1.5 hours after administration of LPS, whole blood was collected from the orbit of ICR mice, centrifuged at 4000 rpm for 10 min, and the supernatant was collected and used for TNF-α content detection from each of the different Compound 1 doses. (TNF-α detection kit, Unitech biological item number: 70-EK282/3-96).

As usually defined, the IC50 is the concentration that inhibits the measured activity by half. On to `CC(C)CC1NC(=O)C(CC(C)C)NC(=O)C(CCCNC(=N)N)NC(=O)C(CCCCN)NC(=O)C(C)(C)NC(=O)C(CC(C)C)NC(=O)C(CCCCN)NC(=O)C(CCCNC(=N)N)NC(=O)C(CC(C)C)NC(=O)C(NC(=O)C(CO)NC(=O)C(C)NC(=O)c2ccccn2)CSSCC(C(N)=O)NC1=O` (stereo not drawn) [Compound 1, picolinyl-Ala-Ser-cyclo[Cys-LRKL-Aib-KRLL-Cys]-NH2] (Picolinoyl-ASCLRKL[Aib]KRLLC-NH2; disulfide 3-13; configuration not given here), for which, in experiment [1], the 50% inhibitory concentration (IC50) was around 1020 nM. In addition, in experiment [2], the “ED50 (Effective Dose at which a 50% reduction in blood TNF-α content was found)” value is 0.045 mg/kg.
